Test results published in patent US6818208B2, “Use of a flavonoid extract of ginkgo biloba substantially devoid of terpenes, in the dentibuccal field, and composition containing such extract” (Societe de Conseils de Recherches et d'Applications …, priority 1996, dated 2004).

Target: T1, human leucocyte elastase (HLE) (Homo sapiens, UniProt P08246)
T1 sequence (P08246 30-267): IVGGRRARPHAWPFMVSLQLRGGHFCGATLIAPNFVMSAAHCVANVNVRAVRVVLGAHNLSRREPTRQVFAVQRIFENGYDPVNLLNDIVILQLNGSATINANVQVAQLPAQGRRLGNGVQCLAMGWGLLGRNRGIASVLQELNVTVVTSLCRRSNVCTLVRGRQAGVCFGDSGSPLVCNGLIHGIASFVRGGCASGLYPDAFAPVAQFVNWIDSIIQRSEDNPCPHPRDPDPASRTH
Assay: Anti-elastasic activity ex vivo on frozen sections of human gums (elastic fibres remaining, morphometric quantification by image analysis)
Type: biochemical
Conditions: HLE + PMSF, HLE 10 μm/ml, two hours
Experimental: The purpose of this study is therefore to study the anti-elastasic activity of an extract as defined above, alone or in combination with ceramides. This activity is evaluated on sections of human gums.
The ceramides used, of vegetable origin, are obtained according to a process as described in Patent FR 2676936 incorporated by way of reference, a process which comprises exctraction from wheat, using a polar extraction solvent followed by recrystallization from an organic solvent. They are essentially composed of glucosylceramides and ceramides.
For this purpose, the elastic fibre network is subjected to human leucocyte elastase (HLE), with or without an anti-elastasic product. The elastic fibres remaining after enzymatic action are stained with (+) catechin.
Frozen sections of 8 μm are carried out from 5 samples obtained from biopsies of normal buccal mucosa, taken during dental extractions.
In a first stage, the concentration in human leucocyte elastase required for the destruction of elastic fibres is determined: leucocyte elastase is applied to the skin sections for two hours at ambient temperature and in a humid atmosphere; after fixing in acetone and dehydration in ethanol at […], the remaining elastic fibres are stained with (+) catechin. Total destruction of the elastic fibres is obtained in the presence of 10 μm/ml of human leucocyte elastase.
The anti-elastasic activity of the products is compared with that of (PMSF), a powerful elastase inhibitor.

## O=S(=O)(F)Cc1ccccc1 [PMSF]
Lower corium dermis
  % of elastic fibres remaining after treatment with human leucocyte elastase: 70%
Medium corium dermis
  % of elastic fibres remaining after treatment with human leucocyte elastase: 55%
Upper corium dermis
  % of elastic fibres remaining after treatment with human leucocyte elastase: 25%
